From paper PMC10808981, “Synthesis and structure–activity relationships of aryl fluorosulfate-based inhibitors as novel antitubercular agents” (Bioorganic & Medicinal Chemistry Letters, 2024) come the findings set out here.

Like-named read-outs stand apart in the source and are kept apart here. Some results are limits rather than exact numbers.

The test system of one series is Mtb H37Rv. The series can be described thus: MIC determination in Mtb H37Rv, Microdilution Alamar Blue Assay (MABA). It counts as cell-based, Mycobacterium tuberculosis. (In general: Broth dilution looks for growth in wells or tubes with falling amounts of substance.)
For the next series, the system named is HEK293T cells. In words: HEK293T cytotoxicity assay (Cell Titer-Glo). It counts as cell-based. As to conditions: for CC50: HEK293T, 3 days. As to the method: (§1) HEK293T (ATCC) were grown in DMEM (Gibco Cat # 11965-092) supplemented with 10% heat-inactivated FBS, Pen Strep (Gibco) 1X in a 5% CO2 humidified atmosphere at 37◦C. Cells were washed once with DPBS 1X (Gibco), incubated for less than 5 minutes at room temperature in TrypLE solution (Gibco), washed once in propagation medium to remove trypsin, and counted with Trypan Blue. 5 µL of cell suspension ([…]) was dispensed into 1536-well plates containing serial 3-fold drug dilution ranging from 40 µM to 2 nM and incubated for 3 days in a 5% CO2 humidified atmosphere at 37 ◦C. Cell Titer-Glo® Luminescent Cell Viability Assay (Promega) reagent was diluted 1:1 with water and then 2 µL were added to plates. Luminescence was measured in a PHERAStar plate reader (BMG Labtech) and data normalized to negative control (DMSO) minus inhibitor (Puromycin 10 µM). Dose-response curves were fit using the Smart Fit function in Genedata Screener Analyzer (v16.0.8).
A general note: ATP-based viability assays read luminescence as a measure of living cells.

For another series, the system named is HepG2 cells. Conditions: for CC50: read-out: HepG2 CC50, HepG2, 3 days.
The next series deals with Mtb H37Ra. In words: microbe, parasite or virus in culture. The format is cell-based. Conditions: Mycobacterium tuberculosis, 168 h, read-out: H37Ra IC50.
Another series deals with Mtb CDC1551. The series can be described thus: Anti-TB activity against Mtb CDC1551 (IC90), Alamar Blue. The format is cell-based. As to conditions: Mycobacterium tuberculosis. In general terms: The colour change of resazurin is a common sign of viable cells or microbes.
Series [1] is described as follows: HEK293T cytotoxicity assay (Cell Titer-Glo). It counts as cell-based. Conditions: human, HEK293T cells; HEK293T, 3 days. As to the method: as §1
A short description of series [2]: in vitro. As to conditions: human.
The conditions of series [3]: mouse.
The next series can be described thus: in vivo. Conditions: mouse.
Series [4] in a line: in vitro. Conditions: mouse, plasma.
Series [5] is described as follows: in vitro. As to conditions: mouse, po, 20 mg/kg.
[6] abbreviates: Mycobacterium tuberculosis, H37RV, 168 h, Mtb H37Rv, MABA, 7 days.

Take “4-((2,6-difluoro-4-(1H-1,2,3-triazol-1-yl)benzyl)oxy)phenyl sulfurofluoridate [Compound 3 m]”: in the series with Mtb H37Rv (Mtb H37Rv, MABA, 7 days), the MIC (as a rule, the lowest concentration that inhibits growth of the organism) came to 0.22 µM. The CC50 in the series on HEK293T cells and in the series on HepG2 cells was more than 40 µM throughout.
For the molecule “4-((2,6-difluoro-4-(3-isopropyl-1H-1,2,4-triazol-1-yl)benzyl)oxy)phenyl sulfurofluoridate [Compound 20 h]”, in the series on Mtb H37Rv (Mtb H37Rv, MABA, 7 days), the minimal inhibitory concentration (MIC) turned out to be 0.31 µM. The CC50 in the series on HEK293T cells and in the series on HepG2 cells was more than 40 µM in each case.
With `CC(=O)Nc1ccc(COc2ccc(OS(=O)(=O)F)cc2)cc1` [Compound 2], the IC50 (in general, the concentration needed to halve the response being measured) in the series on Mtb H37Ra came to 1300 nM.
Molecule `O=S(=O)(F)Oc1ccc(OCc2ccc(-n3cncn3)cc2)cc1` [Compound 3a, 4-((4-(1H-1,2,4-triazol-1-yl)benzyl)oxy)phenyl sulfurofluoridate] showed an MIC against Mtb H37Rv (setting [6]) of 2.84 µM. The IC90 – broadly, the concentration at which the effect reaches the 90% level – with Mtb CDC1551 worked out at 4.71 µM. The IC50 in the series with Mtb H37Ra worked out at 1500 nM. The CC50 at 72 h in series [1] came to 11.6 µM; in “in vitro [2]”, 19.3 µM.
For the molecule `COc1cc(OCc2ccc(-n3cncn3)cc2)ccc1OS(=O)(=O)F` [Compound 3b, 4-((4-(1H-1,2,4-triazol-1-yl)benzyl)oxy)-2-methoxyphenyl sulfurofluoridate], the “anti-TB activity against Mtb (in words)” value with Mtb H37Rv was “not active”. Also, in the series on Mtb H37Rv (setting [6]), the MIC was determined as 25 µM. The IC90 in the series with Mtb CDC1551 is more than 30 µM. Further, the CC50 at 3 days in [1] is more than 40 µM. The same molecule gave a CC50 at 72 h in the series “in vitro [2]” of 13.3 µM.
For `O=S(=O)(F)Oc1ccc(OCc2ccc(-n3cncn3)cc2)cc1Cl` [Compound 3c, 4-((4-(1H-1,2,4-triazol-1-yl)benzyl)oxy)-2-chlorophenyl sulfurofluoridate], the IC90 with Mtb CDC1551 turned out to be 4.64 µM. Besides, the CC50 at 72 h in series [1] is 3.7 µM; in “in vitro [2]”, 5.8 µM. For the same molecule, the “cytotoxicity against HEK293T (in words)” value in the series with HEK293T cells was “exhibited cytotoxicity”. Moreover, the “cytotoxicity against HepG2 (in words)” value with HepG2 cells was “exhibited cytotoxicity”.
Take `O=S(=O)(F)Oc1ccc(OCc2ccc(-n3cncn3)cc2F)cc1` [Compound 3d, 4-((2-fluoro-4-(1H-1,2,4-triazol-1-yl)benzyl)oxy)phenyl sulfurofluoridate]: in the series with Mtb H37Rv (setting [6]), the MIC stood at 0.6 µM. In the series with Mtb CDC1551, this molecule registered an IC90 of 1.3 µM. Further, the CC50 at 72 h in [1] was 22.7 µM; in “in vitro [2]” it was 12.5 µM.
Molecule `O=S(=O)(F)Oc1ccc(OCc2c(F)cc(-n3cncn3)cc2F)cc1` [Compound 3i, 4-((2,6-difluoro-4-(1H-1,2,4-triazol-1-yl)benzyl)oxy)phenyl sulfurofluoridate] came in with an MIC against Mtb H37Rv (setting [6]) of 0.6 µM. The CC50 at 3 days in series [1] was more than 40 µM. In the series on HepG2 cells (HepG2 cytotoxicity vs H37Rv MIC), the “selectivity index (SI)” value was found to be 9.6. Further, in the series “in vitro [2]”, the CC50 at 72 h worked out at 5.8 µM.
Consider `Cc1nc(C)n(-c2cc(F)c(COc3ccc(OS(=O)(=O)F)cc3)c(F)c2)n1` [Compound 20e, 4-((4-(3,5-dimethyl-1H-1,2,4-triazol-1-yl)-2,6-difluorobenzyl)oxy)phenyl sulfurofluoridate], for which it took 0.23 µM to inhibit growth in the series on Mtb H37Rv (setting [6]) (MIC). In addition, the CC50 at 72 h turned out to be 14.3 µM in [1] and 8.1 µM in the series “in vitro [2]”.
`COc1ncn(-c2cc(F)c(COc3ccc(OS(=O)(=O)F)cc3)c(F)c2)n1` [Compound 20f, 4-((2,6-difluoro-4-(3-methoxy-1H-1,2,4-triazol-1-yl)benzyl)oxy)phenyl sulfurofluoridate] registered an MIC in the series with Mtb H37Rv (setting [6]) of 0.6 µM. Also, the CC50 at 3 days in series [1] was more than 40 µM. The same molecule gave a CC50 in “in vitro [2]” of more than 40 µM.
Regarding `CS(=O)(=O)c1ncn(-c2cc(F)c(COc3ccc(OS(=O)(=O)F)cc3)c(F)c2)n1` [Compound 20i, 4-((2,6-difluoro-4-(3-(methylsulfonyl)-1H-1,2,4-triazol-1-yl)benzyl)oxy)phenyl sulfurofluoridate], in the series on Mtb H37Rv (setting [6]), the MIC amounted to 0.4 µM. For the same molecule, the CC50 at 72 h was 17.2 µM in series [1] and 9.3 µM in “in vitro [2]”.
In the series with Mtb H37Rv (setting [6]), `O=C(O)c1ncn(-c2cc(F)c(COc3ccc(OS(=O)(=O)F)cc3)c(F)c2)n1` [Compound 20j, 1-(3,5-difluoro-4-((4-((fluorosulfonyl)oxy)phenoxy)methyl)phenyl)-1H-1,2,4-triazole-3-carboxylic acid] came in with an MIC of 1.25 µM. In series [1], this molecule came in with a CC50 at 3 days of more than 40 µM. Besides, in “in vitro [2]”, the CC50 was more than 40 µM.
On to `CC(=O)Nc1ncn(-c2cc(F)c(COc3ccc(OS(=O)(=O)F)cc3)c(F)c2)n1` [Compound 21a, 4-((4-(3-acetamido-1H-1,2,4-triazol-1-yl)-2,6-difluorobenzyl)oxy)phenyl sulfurofluoridate], for which the MIC in the series with Mtb H37Rv (setting [6]) amounted to 0.15 µM. For the same molecule, in series [1], the CC50 at 3 days is more than 40 µM. This molecule also had a CC50 in “in vitro [2]” of more than 40 µM.
For the molecule `CS(=O)(=O)Nc1ncn(-c2cc(F)c(COc3ccc(OS(=O)(=O)F)cc3)c(F)c2)n1` [Compound 21b, 4-((2,6-difluoro-4-(3-(methylsulfonamido)-1H-1,2,4-triazol-1-yl)benzyl)oxy)phenyl sulfurofluoridate], in the series on Mtb H37Rv (Mtb H37Rv, MABA, 7 days), the “H37Rv MIC” value is listed as 0.06 ± 0.019 µM. The MIC against Mtb H37Rv (Mycobacterium tuberculosis, H37RV) amounted to 0.028 µg/mL. In the series with Mtb H37Rv (setting [6]), this molecule showed an MIC of 0.06 µM. Further, in [1], the CC50 at 3 days is more than 40 µM. Moreover, the “cytotoxicity against HEK293T (in words)” value with HEK293T cells was “no cytotoxicity”. In the series on HepG2 cells, the “cytotoxicity against HepG2 (in words)” value is listed as “no cytotoxicity”. Also, the “coverage of plasma and lung levels above the H37Rv MIC” value in series [3] (20 mg/kg PO, total levels) was approximately 24 h. For the same molecule, in series [3] (20 mg/kg PO, unbound levels), the “unbound levels of plasma and lung coverage over MIC” value is listed as approximately 8 h. Further, in series [3] (IV 3 mg/kg), the AUC0-24 is 7,085 hr*ng/mL; the Cl was determined as 7.05 mL/min/kg; the T1/2 was found to be 3.93 h; the distribution volume (Vd) (as a rule, the apparent volume that relates the amount in the body to the concentration in plasma or blood) is 2.38 L/kg. Also, in [3] (PO 20 mg/kg), the AUC0-24 is 47,615 hr*ng/mL; the T1/2 was 2.57 h; the Tmax (in general, the time from dosing to the highest level) came to 1.00 h. Further, in [3] (PO 20 mg/kg, lung, 8 h), the “Clung at 8 h” value is reported as 1,596 ng/mL. Moreover, the “Clung at 24 h” value in [3] (PO 20 mg/kg, lung, 24 h) worked out at 14.1 ng/mL. In series [3] (PO 20 mg/kg, plasma, 8 h), the “Cplasma at 8 h” value is 2,120 ng/mL. For the same molecule, the “Cplasma at 24 h” value in series [3] (PO 20 mg/kg, plasma, 24 h) worked out at 22.6 ng/mL. Besides, the maximum concentration (Cmax) (commonly the highest concentration seen after dosing) in series [3] (in vivo, po, 20 mg/kg) is 9,290 ng/mL. In the series “in vivo” (iv, 3 mg/kg), this molecule registered a Cmax of 3310 ng/mL. In addition, the bioavailability (as a rule, the share of a dose that reaches the circulation, judged against a reference dose that is usually intravenous) in “in vivo” (po, 20 mg/kg) was found to be 99.4%. The same molecule registered a CC50 in the series “in vitro [2]” of more than 40 µM. The free fraction (fraction unbound) (commonly free concentration divided by total concentration) in “in vitro [4]” was found to be 0.008. For the same molecule, the free fraction (fraction unbound) in “in vitro [5]” was 0.016.
In turn, `CC(C)S(=O)(=O)Nc1ncn(-c2cc(F)c(COc3ccc(OS(=O)(=O)F)cc3)c(F)c2)n1` [Compound 21e, 4-((2,6-difluoro-4-(3-((1-methylethyl)sulfonamido)-1H-1,2,4-triazol-1-yl)benzyl)oxy)phenyl sulfurofluoridate] displayed an MIC against Mtb H37Rv (setting [6]) of 0.31 µM. This molecule also had a CC50 at 3 days in [1] of more than 40 µM. The CC50 in “in vitro [2]” was more than 40 µM.
`CC(C)(C)S(=O)(=O)Nc1ncn(-c2cc(F)c(COc3ccc(OS(=O)(=O)F)cc3)c(F)c2)n1` [Compound 21f, 4-((4-(3-((1,1-dimethylethyl)sulfonamido)-1H-1,2,4-triazol-1-yl)-2,6-difluorobenzyl)oxy)phenyl sulfurofluoridate] gave an MIC in the series on Mtb H37Rv (setting [6]) of 2.5 µM. In addition, the CC50 at 3 days in series [1] was more than 40 µM. Also, in “in vitro [2]”, the CC50 was more than 40 µM.
